Test results as given in PMC6013238, “Development of novel NEMO-binding domain mimetics for inhibiting IKK/NF-κB activation” (PLoS Biology, 2018).
“Also recorded” adds a separate entry of the source.

Tested on: phosphorylated IKK complex, IκBα and p65
Assay: Western blot of IKK/NF-κB signaling in Raw 264.7 cells (TNF-α or LPS)
Format: cell-based, mouse
Conditions: 150 μM (S2A Fig: 0-150 μM), 30 min; TNF-α 10 ng/ml or LPS 1 μg/ml 10 min
Procedure: To determine whether the novel NBD mimetics target the NEMO-IKKβ interaction in vivo, co-immunoprecipitations were performed using extracts from Raw 264.7 macrophages (Fig 5A). […] No interaction between NEMO and TNF receptor-associated factor 2 (TRAF2) or IκBα was observed under these conditions. […] The levels of phosphorylated IKK complex, IκBα, and p65 in response to TNF-α and LPS were all reduced by SR12343 (Fig 5D & 5E). […] However, there were no changes in the levels of phospho-c-Jun N-terminal kinase (p-JNK), p-p38MAPK, total JNK, and p38MAPK by treatment with SR12343 (150 μM) in response to TNF-α or LPS stimulation (Fig 5G & 5H). […]
(A) Co-IP analysis detecting the IKKβ/NEMO interaction. […] NEMO-binding products were then analyzed for levels of IKKβ, IKKα, TRAF2, and IκBα (negative control), and levels of NEMO were used as a loading control (left panel). […] The levels of IKKβ-FLAG binding to GST-NEMO were determined by western blot analysis with GST-NEMO used as a loading control. […] Cell lysates were analyzed for activity of the IKK/NF-κB signaling pathway including activation of IKK complex, IκBα, and p65. […] Cell lysates were harvested and analyzed for activation of noncanonical NF-κB signaling, the processing of p100 to p52. […]

O=C(CNc1ccc(Cl)cn1)NCCc1cccc(Br)c1 [SR12343]
Levels of phosphorylated IKK complex, IκBα and p65: inhibited phosphorylation of IKKα/β and p65 and prevented IκBα from degradation; also recorded: all reduced
